# Experimental data from ChEMBL document CHEMBL1130731, “Methyloxime-substituted aminopyrrolidine: a new surrogate for 7-basic group of quinolone” (Bioorg Med Chem Lett, 1998).
# Experiments:
# Pseudomonas aeruginosa = assay: In vitro antimicrobial activity against Pseudomonas aeruginosa 1012E; format: functional
# Salmonella typhimurium = assay: In vitro antimicrobial activity against Salmonella Typhimurium 14028; format: functional, Salmonella enterica subsp. enterica serovar Typhimurium; conditions: Salmonella enterica
# Bacillus subtilis = assay: In vitro antimicrobial activity against Bacillus subtilis ATCC 6633; format: functional
# Citrobacter koseri = assay: In vitro antimicrobial activity against Citrobacter diversus 2046E; format: functional
# Klebsiella aerogenes = assay: In vitro antimicrobial activity against Klebsiella aerogenes 1076E; format: functional
# [1] = test system: Staphylococcus epidermidis; assay: In vitro antimicrobial activity against Staphylococcus epidermis 887E; format: functional
# [2] = test system: Staphylococcus epidermidis; assay: In vitro antimicrobial activity against Staphylococcus epidermis 178; format: functional
# Escherichia coli [3] = assay: In vitro antimicrobial activity against Escherichia coli 10536; format: functional
# Escherichia coli [4] = assay: In vitro antimicrobial activity against Escherichia coli 3190Y; format: functional
# Micrococcus luteus = assay: In vitro antimicrobial activity against Micrococcus luteus ATCC 9341; format: functional
# Escherichia coli [5] = assay: In vitro antimicrobial activity against Escherichia coli TEM5 3739E; format: functional
# Staphylococcus aureus [6] = assay: In vitro antimicrobial activity against Staphylococcus aureus 77; format: functional
# Enterobacter cloacae = assay: In vitro antimicrobial activity against Enterobacter cloacae p99; format: functional
# Staphylococcus aureus [7] = assay: In vitro antimicrobial activity against Staphylococcus aureus giorgio; format: functional
# Staphylococcus aureus [8] = assay: In vitro antimicrobial activity against Staphylococcus aureus 241; format: functional
# Escherichia coli [9] = assay: In vitro antimicrobial activity against Escherichia coli 851E; format: functional
# [10] = test system: Acinetobacter calcoaceticus; assay: In vitro antimicrobial activity against Acinetobacter calcoaceticus 15473; format: functional
# [11] = Tmax value after administration of 4 mg/Kg oral dose in dog; format: ADME, organism-based, Canis lupus familiaris; conditions: in vivo
# in vivo [12] = conditions: dog, po, 4 mg/kg
# [13] = Cmax value after administration of 20 mg/Kg oral dose in rat; format: ADME, organism-based; parameters: dose 20 mg/Kg, route oral; conditions: in vivo
# in vivo [14] = conditions: dog, po, 4 mg/kg; remark: listed apart in the source
# [15] = AUC value after administration of 20 mg/Kg oral dose in rat; format: ADME, organism-based; conditions: plasma
# Mus musculus [16] = assay: In vivo efficacy against systemic infection of Pseudomonas aeruginosa 1912E in mouse; format: functional
# Mus musculus [17] = assay: In vivo efficacy against systemic infection of Staphylococcus aureus giorgio in mouse; format: functional
# [18] = Tmax value after administration of 20 mg/Kg oral dose in rat; format: ADME, organism-based; conditions: in vivo
# Escherichia coli [19] = assay: In vitro antimicrobial activity against Escherichia coli 10536
# [20] = Half-life after administration of 4 mg/Kg oral dose in dog; conditions: in vivo
# [21] = Bioavailability in rat (dose 20 mg/kg p.o.); format: ADME, organism-based; conditions: in vivo, po
# [22] = Bioavailability in dog (dose 4 mg/kg p.o.); format: ADME, organism-based, Canis lupus familiaris; conditions: in vivo, po
# [23] = Half-life after administration of 20 mg/Kg oral dose in rat; format: ADME, organism-based; conditions: in vivo
SMILES,MIC (Pseudomonas aeruginosa),MIC (Salmonella typhimurium),MIC (Bacillus subtilis),MIC (Citrobacter koseri),MIC (Klebsiella aerogenes),MIC [1],MIC [2],MIC (Escherichia coli [3]),MIC (Escherichia coli [4]),MIC (Micrococcus luteus),MIC (Escherichia coli [5]),MIC (Staphylococcus aureus [6]),MIC (Enterobacter cloacae),MIC (Staphylococcus aureus [7]),MIC (Staphylococcus aureus [8]),MIC (Escherichia coli [9]),MIC [10],further results
CO/N=C1/CN(c2cc3c(cc2F)c(=O)c(C(=O)O)cn3C2CC2)CC1N (stereo not drawn),1 µg/mL,0.13 µg/mL,≤ 0.008 µg/mL,0.031 µg/mL,0.25 µg/mL,0.031 µg/mL,16 µg/mL,0.016 µg/mL,≤ 0.008 µg/mL,0.25 µg/mL,0.5 µg/mL,0.031 µg/mL,≤ 0.008 µg/mL,0.016 µg/mL,32 µg/mL,0.031 µg/mL,0.031 µg/mL,–
CNC1CN(c2nc3c(cc2F)c(=O)c(C(=O)O)cn3C2CC2)C/C1=N\OC (stereo not drawn),4 µg/mL,0.25 µg/mL,≤ 0.008 µg/mL,0.13 µg/mL,0.5 µg/mL,0.063 µg/mL,32 µg/mL,≤ 0.008 µg/mL,≤ 0.008 µg/mL,2 µg/mL,1 µg/mL,0.063 µg/mL,≤ 0.008 µg/mL,0.031 µg/mL,16 µg/mL,0.063 µg/mL,0.13 µg/mL,–
O=C(O)c1cn(C2CC2)c2cc(N3CCNCC3)c(F)cc2c1=O [CIPROFLOXACIN],0.13 µg/mL,0.031 µg/mL,0.031 µg/mL,0.016 µg/mL,0.13 µg/mL,0.13 µg/mL,128 µg/mL,≤ 0.008 µg/mL,≤ 0.008 µg/mL,4 µg/mL,0.13 µg/mL,0.25 µg/mL,–,0.25 µg/mL,128 µg/mL,–,0.25 µg/mL,Tmax [11]: 67.2 min; Cmax (in vivo [12]): 910 ng/mL; Cmax [13]: 900 ng/mL; AUC (in vivo [14]; in vivo): 4540 ng·h/mL; AUC [15]: 2590 ng·h/mL; ED50 (Mus musculus [16]): 3.11 mg/kg; ED50 (Mus musculus [17]): 7.46 mg/kg; Tmax [18]: 6.6 min
NC1CN(c2c(F)cc3c(=O)c(C(=O)O)cn(C4CC4)c3c2F)C/C1=N\O (stereo not drawn),1 µg/mL,0.63 µg/mL,0.063 µg/mL,0.13 µg/mL,0.5 µg/mL,0.13 µg/mL,64 µg/mL,0.016 µg/mL,≤ 0.008 µg/mL,0.25 µg/mL,0.5 µg/mL,0.063 µg/mL,0.031 µg/mL,0.063 µg/mL,32 µg/mL,0.031 µg/mL,0.5 µg/mL,–
CO/N=C1\CN(c2nc3c(cc2F)c(=O)c(C(=O)O)cn3C2CC2)CC1N (stereo not drawn),2 µg/mL,0.13 µg/mL,≤ 0.008 µg/mL,0.063 µg/mL,0.25 µg/mL,0.063 µg/mL,8 µg/mL,≤ 0.008 µg/mL,≤ 0.008 µg/mL,1 µg/mL,1 µg/mL,0.063 µg/mL,0.016 µg/mL,0.063 µg/mL,8 µg/mL,0.063 µg/mL,0.063 µg/mL,–
C=CCO/N=C1\CN(c2c(F)cc3c(=O)c(C(=O)O)cn(C4CC4)c3c2F)CC1N (stereo not drawn),2 µg/mL,0.25 µg/mL,≤ 0.008 µg/mL,0.13 µg/mL,0.25 µg/mL,0.016 µg/mL,2 µg/mL,0.031 µg/mL,≤ 0.008 µg/mL,0.25 µg/mL,0.5 µg/mL,0.031 µg/mL,0.031 µg/mL,0.016 µg/mL,2 µg/mL,0.063 µg/mL,0.031 µg/mL,–
CO/N=C1\CN(c2c(F)c(N)c3c(=O)c(C(=O)O)cn(C4CC4)c3c2F)CC1N (stereo not drawn),1 µg/mL,0.063 µg/mL,≤ 0.008 µg/mL,0.063 µg/mL,0.25 µg/mL,0.016 µg/mL,2 µg/mL,≤ 0.008 µg/mL,≤ 0.008 µg/mL,0.5 µg/mL,0.13 µg/mL,0.031 µg/mL,≤ 0.008 µg/mL,≤ 0.008 µg/mL,2 µg/mL,0.031 µg/mL,0.031 µg/mL,–
CO/N=C1/CN(c2c(F)cc3c(=O)c(C(=O)O)cn(C4CC4)c3c2Cl)CC1N (stereo not drawn),2 µg/mL,0.13 µg/mL,≤ 0.008 µg/mL,0.063 µg/mL,0.25 µg/mL,0.016 µg/mL,0.5 µg/mL,–,≤ 0.008 µg/mL,0.13 µg/mL,0.25 µg/mL,0.016 µg/mL,0.016 µg/mL,0.016 µg/mL,0.5 µg/mL,0.031 µg/mL,0.031 µg/mL,MIC (Escherichia coli [19]): 0.016 µg/mL
NC1CN(c2c(F)cc3c(=O)c(C(=O)O)cn(C4CC4)c3c2F)C/C1=N\OCCF (stereo not drawn),2 µg/mL,0.13 µg/mL,0.016 µg/mL,0.13 µg/mL,0.25 µg/mL,0.063 µg/mL,2 µg/mL,0.031 µg/mL,0.016 µg/mL,0.25 µg/mL,0.25 µg/mL,0.063 µg/mL,0.016 µg/mL,0.031 µg/mL,2 µg/mL,0.031 µg/mL,0.13 µg/mL,–
CO/N=C1\CN(c2c(F)cc3c(=O)c(C(=O)O)cn(C4CC4)c3c2F)CC1N (stereo not drawn),1 µg/mL,0.063 µg/mL,≤ 0.008 µg/mL,0.063 µg/mL,0.13 µg/mL,0.016 µg/mL,2 µg/mL,≤ 0.008 µg/mL,≤ 0.008 µg/mL,0.13 µg/mL,0.25 µg/mL,0.016 µg/mL,≤ 0.008 µg/mL,≤ 0.008 µg/mL,2 µg/mL,0.031 µg/mL,0.016 µg/mL,Tmax [11]: 13.8 min; Cmax (in vivo [12]): 3440 ng/mL; Cmax [13]: 22800 ng/mL; AUC (in vivo [14]; plasma): 12900 ng·h/mL; AUC [15]: 179000 ng·h/mL; ED50 (Mus musculus [16]): 9.69 mg/kg; half-life [20]: 140 min; bioavailability [21]: > 100%; ED50 (Mus musculus [17]): 0.87 mg/kg; bioavailability [22]: > 100%; half-life [23]: 311 min; Tmax [18]: 10.8 min
